From patent US7112555B1, “Use of glycuronic polysaccharides and oligosaccharides as phytosanitary products and/or fertiliser” (Centre National de la Recherche Scientifique, priority 1999, dated 2006)

Columns and labels:
[1] = tested on: 1,3β-D-glucanase; assay: 1,3β-D-glucanase response induced in the protoplasts of Rubus; format: cell-based, Rubus fruticosus L.; conditions: for 1,3-β-D-glucanase activity (% control): elicitor 50 nM, 2.10^6 protoplasts
Description: (§1) Experimental conditions: (1) preparation of protoplasts from cell suspensions of Rubus fruticosus L.; (2) incubation, or not, of n samples of 2.10^6 protoplasts in the presence of “elicitors” (1,4-D-glucuronan polymers and 1,4β-D-galacturonan (400 μg/L) polymers, 1,4β-D-glucuronan oligomers of average DP 8, 1,4β-D-mannuronan oligomers of DP 4, and 1,4β-D-guluronan oligomers of DP 4 (50 nM)); (3) after 20 minutes, the protoplasts whether may be treated or not, are subjected to enzymatic extraction. 2 μg of proteins are used per enzymatic test, and per incubation period. The viability of the protoplasts is maintained at 95% for an experimental period of 6 hours; the Evans blue viability test used verifies the integrity of the plasmalemma.
Methodology: measurement of activity (1,3β-D-glucanase) is based on the calorimetric dosage (ferricyan test) of the substrate-reducing units (reduced hexamer from laminarin) released during hydrolysis. Based on the kinetics developed, curves are traced whose equations make it possible to calculate the speed of the enzymatic reaction. 2 kinetics, at least, are developed per sample, and per experimental “set”. In general, at least 8 kinematics from samples of 2 independent “sets” are developed.
Results: the enzymatic activation elicited in the protoplasts is expressed as a % of the activity in the controls.

[2] = tested on: xyloglucan endotransglycolase; assay: Xyloglucan endotransglycolase (XET) response induced in protoplasts of Rubus; format: cell-based; conditions: 50 nM, in 20 minutes
Description: Experimental elicitation conditions. 2.10^6 protoplasts in 1 ml Tris-HCl buffer (pH 4.8) are incubated in the presence, or not, of an elicitor (50 nM) or of a hormone (50 nM): mannuronan oligomer of DP4 or glucuronan oligomer of DP8 or gibberellin GA3. After 20, 40, 60, 100 and 120 minutes of interaction, the protoplasts are recovered by centrifugation, then subjected to enzymatic extraction.
Methodology: measurement of XET activity is carried out in the wells of microtitration plates in 4 stages. Stage 1: immobilization of the acceptor, i.e. the neoglycoprotein XXLG≈BSA. Stage 2: introduction of the reaction medium (XET enzymatic extraction (equivalent to 1 μg of proteins) substrate marked DIG, i.e. XG≈DIG in the Tris-HC1 buffer, pH=7, 25 mM). Stage 3: immunomarking according to the anti-DIG marked peroxydase sequence, anti-peroxydase marked peroxydase. Stage 4: dosage of the peroxydase activity in a citrate-phosphate buffer ([…], pH 5.5).
The peroxydase activity is measured at 492 nm. At least 3 curves of peroxydase activity are traced per experimental condition, and the experiments are carried out using 3 protoplast suspensions. The XET activity is measured by the slope (ΔA 492) of the curve deduced by linear regression from 9 peroxydase kinetics curves.

[3] = tested on: 1,4β-D-glucanase; assay: 1,4β-D-glucanase response induced in protoplasts of Rubus; format: cell-based, Rubus fruticosus L.; conditions: elicitor 50 nM, 20 minutes, 2.10^6 protoplasts
Description: as §1
Experimental elicitation conditions: identical to those reported above.
Methodology: measurement of activity (1,4β-D-glucanase) is based on the calorimetric dosage (ferricyan test) described above of the substrate-reducing units (reduced cellopentaose) released during hydrolysis.

Compound	amplification factor of XET activity versus non-elicited protoplasts [2]	1,3-β-D-glucanase activity (% control) ([1]; 20 minutes)	further results
1,4β-D-glucuronan polymer			amplification factor of 1,3-β-D-glucanase activity in plant protoplasts ([1]; nanomolar concentration, in 20 minutes): 1.3
C=C1C[C@]23C[C@@]1(O)CC[C@H]2[C@@]12C=C[C@H](O)[C@](C)(C(=O)O1)[C@H]2[C@@H]3C(=O)O [GA3, gibberellin GA3, reference compound]	1.12		
glucuronan oligomer of DP8	1.62		
oligo 1,4-β-D-guluronan of DP 4 [e]		146	effectiveness of 1,3-β-D-glucanase induction among the other products tested ([1]; 50 nM, 20 minutes): most effective; 1,4β-D-glucanase activity (% control) [3]: 101 % control
oligo 1,4-β-D-mannuronan of DP 4	2.12	122	
